For this assay, the system named is MCF7 Parent. The experiment in a line: Cell number dose-response. In kind it is cell-based. The note with it: Homo sapiens. The source says: MCF7 abemaciclib-resistant cells were generated by continuous treatment with abemaciclib at a concentration of 250 nmol/L for 72 days, followed by 500 nmol/L for 48 days. MCF7 fulvestrant-resistant cells were generated by continuous treatment of 100 nmol/L Fulvestrant for 125 days. MCF7 abemaciclib/fulvestrant-resistant cells were generated by treating abemaciclib-resistant cells continuously with 100 nmol/L fulvestrant for 137 days. T47D abemaciclib-resistant lines were generated by continuous treatment with abemaciclib at a concentration of 500 nmol/L for 73 days. T47D fulvestrant–resistant cells were generated by continuous treatment with 100 nmol/L fulvestrant for 68 days. T47D abemaciclib/fulvestrant-resistant cells were generated by treating abemaciclib-resistant cells with continuous treatment of 100 nmol/L Fulvestrant for 60 days. Resistant cell lines were cultured in medium containing drug(s) that the line is resistant to and further authenticated using short tandem repeat profiling.
An exception to this is MCF7PDRCl5-1 cells which were first cultured for 5 days without palbociclib then plated as described. MCF7PDRCl5-1 cells were treated with either a dose curve of the indicated CDK4/6i or a dose curve of INX-315 + 1 µmol/L of the indicated CDK4/6i. Cell viability was determined using the CellTiter-Glo assay (Promega, G9241) following manufacturer's instructions. Plates were processed on either BioTek Synergy2 multi-mode (Agilent) or ClarioSTAR (BMG Labtech) plate readers. T47D and MCF7 cells were seeded into […] plates using BioTek 406 (Aglient) and treated with a ten-point dose concentration from 10 µmol/L to 0.3 nmol/L of INX-315 for 2× doubling times. Plates were fixed with 4% PFA and stained with Rhodamine-Phalloidin (Bio-Trend, 00027) and DAPI (5 mg/mL, Invitrogen, catalog no. D1306). Plates were imaged using CellInsight CX7 LZR and DAPI-positive cells were counted using Thermo Fisher Scientific HCS Studio Cell Analysis Software.

Where two headings read alike, the source gives them in different places.

As for `NS(=O)(=O)c1ccc(Nc2ncc3cc4n(c3n2)C2(CCCCC2)C(=O)NN4)cc1` [INX-315], the IC50 (MCF7, read-out: IC50 (nmol/L): MCF7, Parent + abema: 500 nmol/L abemaciclib concurrently) was 515 nmol/L and the IC50 (MCF7, read-out: IC50 (nmol/L): MCF7, Parent cells in DMSO) was found to be 267 nmol/L.

The record behind these values is paper PMC10905675, “INX-315, a Selective CDK2 Inhibitor, Induces Cell Cycle Arrest and Senescence in Solid Tumors” (Cancer Discovery, 2023).
